Results as given in patent publication US20120258974A1, “USE OF A2B ADENOSINE RECEPTOR ANTAGONISTS FOR TREATING HEART FAILURE AND ARRHYTHMIA IN POST-MYOCARDIAL INFARCTION PATIENTS” (GILEAD SCIENCES, INC., priority 2011, published 2012).
“Also recorded” adds a separate entry of the source.

Columns and labels:
[1] = tested on: human cardiac myocytes (HCM); assay: NECA-induced IL-6 release from human cardiac myocytes (Example 7); format: cell-based; settings: for effect of NECA on HCM (IL-6 release): NECA in combination with antagonist
Procedure: This example uses human cardiac myocytes to test two other A2B adenosine receptor antagonists on their effect on NECA-induced IL-6 release.
Human cardiac myocytes (HCM) were treated with NECA alone, or in combination with Compound A, Compound B (N-[5-(1-cyclopropyl-2,6-dioxo-3-propyl-2,3,6,7-tetrahydro-1H-purin-8-yl)-pyridin-2-yl]-N-ethyl-nicotinamide, also known as ATL-801) or Compound C (2-(4-benzyloxy-phenyl)-N-[5-(2,6-dioxo-1,3-dipropyl-2,3,6,7-tetrahydro-1H-purin-8-yl)-1-methyl-1H-pyrazol-3-yl]-acetamide).

[2] = tested on: rats with MI (25 minutes coronary occlusion followed by reperfusion); assay: Rat model of post-MI remodeling: serial echocardiograms (Example 6); format: in vivo
Procedure: The effects of Compound A in a rat model of post-MI remodeling and VT were determined. MI was caused by 25 minutes occlusion at the left anterior descending coronary ligation followed by reperfusion. One week later, rats were administered either vehicle or Compound A (100 mg/kg) once daily by oral gavage. Serial echocardiograms (ECHOs) to measure LV ejection fraction (LVEF), stroke volume and LV end systolic volume (LVESV) were obtained at baseline, 1 week and 5 week post-MI. Electrophysiological studies, optical mapping, histology and biomarker analysis were conducted at 5 week post-MI.

[3] = tested on: primary human cardiac fibroblasts (HCF); assay: NECA-induced release of IL-6, collagen, ST-2, PAPPA and expression of fibrotic markers in human cardiac fibroblasts (Example 2); format: cell-based
Procedure: Real-time RT-PCR was performed as published using Stratagene PCR equipment (La Jolla, Calif.). Zhong H., et al., “A2B adenosine receptors increase cytokine release by bronchial smooth muscle cells,” American Journal of Respiratory Cell and Molecular Biology, 30(1): 118-125 (2004).
Expression of AdoR, α-smooth muscle actin and α-1 pro-collagen was determined using real-time RT-PCR. The concentration of IL-6, soluble ST-2 and PAPPA (Pregnancy-associated plasma protein A) in the cell supernatants were measured using ELISA, and the concentration of soluble collagen were determined using Sircol™ collagen assay.

## CCCn1c(=O)n(C2CC2)c(=O)c2[nH]c(-c3ccc(N(CC)C(=O)c4cccnc4)nc3)nc21 [Compound B, N-[5-(1-cyclopropyl-2,6-dioxo-3-propyl-2,3,6,7-tetrahydro-1H-purin-8-yl)-pyridin-2-yl]-N-ethyl-nicotinamide]
[1]
  effect of NECA on HCM (IL-6 release): completely abolished

## CCCn1c(=O)c2[nH]c(-c3cc(NC(=O)Cc4ccc(OCc5ccccc5)cc4)nn3C)nc2n(CCC)c1=O [Compound C]
[1]
  effect of NECA on HCM (IL-6 release): completely abolished

## Cc1ccc(=O)n(-c2ccccc2)c1 [pirfenidone, reference compound]
[2]; post-MI, Example 6 and FIG. 12B
  reduction of LVEF: only slowed
[2]; rat post-MI, comparison with Compound A, FIG. 12B
  LVESV (so in the source): increase and further reduction: did not increase; also recorded: only slightly inhibited

## N-ethylcarboxamide adenosine [NECA]
[1]; NECA alone
  IL-6 release from human cardiac myocytes: significantly increased
[3]; NECA 10 μM, basal 3.4±0.2
  soluble collagen concentration after stimulation: 6.0 ± 0.4 µg/mL
[3]; NECA 10 μM, p<0.05
  production of collagen, fold induction: 1.8±0.1 fold
[3]; NECA 10 μM, real-time RT-PCR
  expression of α-1 pro-collagen: increased
  expression of α-smooth muscle actin: increased
[3]; basal 1.4±0.5
  PAPPA concentration after stimulation: 6.2 ± 0.8 ng/mL
[3]; basal 1.5±0.1
  soluble ST-2 concentration after stimulation: 2.6 ± 0.1 ng/mL
[3]; concentration-dependent
  release of IL-6, maximal increase over the basal level: 2.4±0.1 fold
[3]; p<0.05
  release of PAPPA, fold induction: 4.4±0.6 fold
  release of soluble ST-2, fold induction: 1.7±0.1 fold
